Laboratory results: patent US5444042A, “Method of treatment of neurodegeneration with calpain inhibitors” (Cortex Pharmaceuticals, priority 1994, dated 1995)
Read-outs that look alike come from different tables or passages of the source.

Key:
[1] = target: T1, Papain (Carica papaya, UniProt P00784); assay: Papain inhibition, Ki by Dixon plot (Table PKC1); type: biochemical; details: 5 mM cysteine, 25° C.
T1 sequence (P00784 134-345): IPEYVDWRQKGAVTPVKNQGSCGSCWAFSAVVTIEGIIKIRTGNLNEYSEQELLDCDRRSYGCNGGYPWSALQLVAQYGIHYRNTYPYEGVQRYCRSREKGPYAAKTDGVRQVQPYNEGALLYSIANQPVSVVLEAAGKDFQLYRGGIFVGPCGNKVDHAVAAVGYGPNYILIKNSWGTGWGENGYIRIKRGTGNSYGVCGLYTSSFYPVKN
Procedure: (§1) Various concentrations of inhibitors in dimethylsulfoxide (DMSO) were added to the assay mixture, which contained buffer and substrate. The reaction was started by the addition of the enzyme and the hydrolysis rates were followed spectrophotometrically or fluorimetrically. 88 mM KH2 PO4, 12 mM Na2 HPO4, 1.33 mM EDTA, 2.7 mM cysteine, pH 6.0 was used as a buffer for cathepsin B; and 20 mM Hepes, 10 mM CaCl2, 10 mM β-mercaptoethanol, pH 7.2 buffer was utilized for calpain I and calpain II.
(§2) All peptide thioester hydrolysis rates were measured with assay mixtures containing 4,4'-dithiodipyridine [e324=19800 M-1 cm-1; Grasetti & Murray, Arch. Biochem. Biophys. 119, pp 41-49 (1967)]. Papain was assayed with Bz-Arg-AMC or Bz-Arg-NA [Kanaoka et al., Chem. Pharm. Bull. 25, 3126-3128 (1977)], and the AMC (7-amino-4-methylcoumarin) release was followed fluorimetrically (excitation at 380 nm, and emission at 460 nm). Cathepsin B was assayed with Z-Arg-Arg-AFC [Barrett and Kirschke, Methods Enzymol. 80, 535-561 (1981)], and the AFC (7-amino-4-trifluoromethylcoumarin) release was followed fluorimetrically (excitation at 400 nm, and emission at 505 nm). Calpain I from human erythrocytes and calpain II from rabbit were assayed using Suc-Leu-Tyr-AMC [Sasaki et al., J. Biol. Chem. 259, 12489-12494 (1984), hereby incorporated by reference], and the AMC (7-amino-4-methylcoumarin) release was followed fluorimetrically (excitation at 380 nm, and emission at 460 nm). Enzymatic hydrolysis rates were measured at various substrate and inhibitor concentrations, and Ki values were determined by Dixon plot.
The inhibition constants for papain shown in Table PKC1 were measured in 0.05M Tris-HCl, pH 7.5 buffer, containing 2 mM EDTA, 5 mM cysteine (freshly prepared), 1% DMSO, at 25° C., using N^α -Benzoyl-Arg-AMC as a substrate, except that those values of inhibition constants for papain marked with an "e" in Table PKC1 were measured in 50 mM Tris-HCl, pH 7.5 buffer, containing 20 mM EDTA, 5 mM cysteine, 9% DMSO, at 25° C., using N^α -Benzoyl-Arg-NA as a substrate.

[2] = tested on: Calpain within platelets; assay: Platelet membrane permeation assay, spectrin proteolysis (Examples 4A, 4B); type: cell-based, rat; details: for effect on intracellular (platelet) Calpain: concentration not given; for inhibition of Calpain within platelets: A23187 1 μM; for IC50: concentration at which 50% of the Calpain activation present in controls occurred
Procedure: Platelets were isolated by a modification of the method of Ferrell and Martin, J Biol. Chem., 264:20723-20729 (1989), the disclosure of which is hereby incorporated by reference. Blood (15-20 ml) was drawn from male Sprague-Dawley rats into 100 mM EDTA-citrate containing 10 units heparin, and centrifuged 30 minutes at 1600 rpm at room temperature. The plasma was resuspended in 15 ml buffer 1 (136 mM NaCl, 2.7 mM KCl, 0.42 mM NaH2 PO4, 12 mM NaHCO3, 2 mM MgCl2, 2 mg/ml BSA (Sigma), 5.6 mM glucose, 22 mM Na3 Citrate pH 6.5) and platelets were isolated at 2200 rpm at room temperature of 25 minutes. Platelets were resuspended to 10^7 cells/ml in buffer 2 (136 mM NaCl, 2.7 mM KCl, 0.42 NaH2 PO4, 12 mM NaHCO3, 2 mM MgCl, 1 mg/ml BSA, 5.6 mM glucose, 20 mM HEPES pH 7.4) and allowed to "rest" for a minimum of 10 minutes at room temperature before use.
Platelets were incubated for 5 minutes in the presence of inhibitor. In order to provide sufficient intracellular calcium to activate Calpain, the calcium ionophore A23187 was added to a final concentration of 1 μM. After a further 5 minute incubation, the platelets were harvested by centrifugation (1 min 10,000×g) and resuspended in 10% sodium dodecyl sulfate, 10 mM Tris pH=8.0, 5% β-mercaptoethanol, 0.02% bromophenol blue, and heated to 95° C. for 5 min. Samples were subjected to SDS-PAGE on 6% mini gels and transferred to nitrocellulose (Schleicher and Schuell BAS3) for 2 hours at 100 mA/gel in an LKB Novablot. Filters were blocked for 10 minutes in 0.25% gelatin, 1% BSA, 0.25% Triton X100, 0.9% NaCl, 10 mM Tris-Cl pH 7.5, incubated overnight in the same solution containing antibody to rat spectrin, washed 3×10 minutes with 10 mM Tris-Cl pH 7.5, 0.5 % Triton X100, incubated 4 hours in wash buffer plus alkaline phosphatase conjugated goat anti-rabbit antibody (Biorad), and washed as above. Filters were developed using the Biorad AP conjugate substrate kit. Spectrin immunoreactivity on the filters was quantitated by densitometry.

[3] = tested on: Calpain in crude brain extracts; assay: Ca2+-stimulated spectrin proteolysis in crude brain extracts (Example 2); type: biochemical; details: 100 μM
Procedure: The activity of Calpain in crude brain extracts was measured by examining the Ca^2+ -stimulated proteolysis of the endogenous substrate spectrin. Brain tissue was homogenized in 10 mM Tris pH=7.4, 0.32M sucrose, 1 mM EGTA, 1 mM dithiothreitol and the nuclei and debris removed by low speed centrifugation. […] Proteolysis of spectrin was evaluated by western blot as described by Seubert, et at. (Brain Research, 459:226-232, 1988), the disclosure of which is hereby incorporated by reference. Briefly, a known quantity of a spectrin-containing sample treated with Calpain is separated by SDS-PAGE and immunoblotted with anti-spectrin antibody. The amount of spectrin immunoreactivity found corresponding to the characteristic BDP's is indicative of the amount of […] activity present in the sample. An examplary method for quantitating BDP's is to assay Spectrin BDP's by homogenizing brain parts in 20 mM Tris pH=7.2, 0.32M sucrose, 50 μM Ac-Leu-Leu-nLeu-H on ice. Homogenates are then mixed 1:1 with 10% SDS, 5% β-mercaptoethanol, 10% glycerol, 10 mM Tris pH=8.0, 0.5% bromophenolblue, heated to 95° C., and subjected to electrophoresis in 41/2% polyacrylamide gels. The proteins in the gels are transferred to nitrocellulose and the spectrin and BDP's detected using a rabbit polyclonal anti-spectrin antibody and established immunodetection methods. The amount of spectrin and BDP's in each sample can be quantitated by densitrometric scanning of the developed nitrocellulose.

[4] = target: T2, Cathepsin B (Bos taurus, UniProt P07688); assay: Cathepsin B inhibition, Z-Arg-Arg-AFC (Table PKC1); type: biochemical; details: pH 6.0 phosphate buffer, substrate Z-Arg-Arg-AFC; read-out: Ki CB (Cathepsin B)
Procedure: as §1, §2

[5] = Stability in plasma; type: in vitro ADME; details: unit assumed
Excerpt: We determined the haft-life of several Peptide Keto-Compounds in both plasma and liver homogenates.

[6] = target: Calpain II; assay: Calpain II KI (Table 1B(ii)); type: biochemical
Excerpt: (§3) We tested the ability of an additional group of Peptide Keto-Compounds to inhibit several proteases in order to evaluate their specificity for Calpain.

[7] = target: PP Elastase (Sus scrofa, UniProt P00772); assay: PP Elastase KI (Table 1B(ii)); type: biochemical
PP Elastase, sequence (P00772 27-266): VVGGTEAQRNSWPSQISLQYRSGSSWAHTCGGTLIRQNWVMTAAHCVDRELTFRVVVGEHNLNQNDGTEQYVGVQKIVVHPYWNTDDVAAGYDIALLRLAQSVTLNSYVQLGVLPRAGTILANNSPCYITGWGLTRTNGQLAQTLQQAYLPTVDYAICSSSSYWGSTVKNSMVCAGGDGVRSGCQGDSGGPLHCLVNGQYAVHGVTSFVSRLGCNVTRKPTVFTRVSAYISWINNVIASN
Excerpt: as §3

[8] = target: T2, Cathepsin B; assay: Cathepsin B KI (Table 1B(ii)); type: biochemical; details: read-out: KI CathB
Excerpt: as §3

[9] = target: Chym (Bos taurus, UniProt P00766); assay: Chym KI (Table 1B(ii)); type: biochemical
Excerpt: as §3

[10] = target: T3, Calpain I (Homo sapiens, UniProt P07384); assay: Calpain I KI (Table 1B(ii)); type: biochemical; details: Table 1B(ii)
T3 sequence (P07384 1-714): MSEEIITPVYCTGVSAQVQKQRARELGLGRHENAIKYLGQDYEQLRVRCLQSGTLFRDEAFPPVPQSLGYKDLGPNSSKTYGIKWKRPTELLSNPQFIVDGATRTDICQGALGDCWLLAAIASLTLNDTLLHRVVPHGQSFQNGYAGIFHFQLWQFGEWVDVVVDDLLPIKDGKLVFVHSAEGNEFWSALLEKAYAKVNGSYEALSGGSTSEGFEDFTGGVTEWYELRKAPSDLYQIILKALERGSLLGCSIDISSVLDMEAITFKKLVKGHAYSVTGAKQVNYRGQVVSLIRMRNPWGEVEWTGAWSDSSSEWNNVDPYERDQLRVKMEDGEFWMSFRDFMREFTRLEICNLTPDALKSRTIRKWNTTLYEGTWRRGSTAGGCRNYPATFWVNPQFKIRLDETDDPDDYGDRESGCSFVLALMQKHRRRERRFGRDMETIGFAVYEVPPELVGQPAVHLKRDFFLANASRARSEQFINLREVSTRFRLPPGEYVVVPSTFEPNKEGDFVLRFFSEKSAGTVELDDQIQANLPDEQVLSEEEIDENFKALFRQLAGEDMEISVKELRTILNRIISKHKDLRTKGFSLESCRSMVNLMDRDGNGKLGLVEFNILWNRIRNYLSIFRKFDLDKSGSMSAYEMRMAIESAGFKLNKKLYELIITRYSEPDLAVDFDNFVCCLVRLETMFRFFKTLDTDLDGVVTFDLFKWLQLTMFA
T3 sequence (P04632 1-268 partner): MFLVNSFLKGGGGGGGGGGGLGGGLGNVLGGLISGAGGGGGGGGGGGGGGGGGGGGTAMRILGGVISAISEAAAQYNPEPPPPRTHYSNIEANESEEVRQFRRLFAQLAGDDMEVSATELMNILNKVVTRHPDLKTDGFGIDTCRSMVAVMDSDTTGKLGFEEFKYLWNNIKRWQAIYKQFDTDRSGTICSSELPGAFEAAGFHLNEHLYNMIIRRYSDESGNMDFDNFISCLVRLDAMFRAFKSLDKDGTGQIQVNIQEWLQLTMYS
Excerpt: as §3

[11] = 50 mM Tris-HCl pH 7.5, 20 mM EDTA, 9% DMSO, substrate Nα-Benzoyl-Arg-NA, read-out: Ki P (Papain), values marked e
[12] = 0.05M Tris-HCl pH 7.5, 2 mM EDTA, 1% DMSO, substrate Nα-Benzoyl-Arg-AMC, read-out: Ki P (Papain)

| t1/2 plasma [5] | Ki [7] | Ki [8] | Ki [9] | Ki [10] | SMILES | Ki [4] | Ki [1, 12] | inhibition of Calpain within platelets ([2]; 100 μM) | also measured |
| --- | --- | --- | --- | --- | --- | --- | --- | --- | --- |
| – | – | – | – | – | CCOC(=O)C(=O)C(Cc1ccccc1)NC(=O)c1ccccc1 (racemic) [Bz-DL-Phe-COOEt, Bz-DL-Phe-CO2 Et] | 64 µM | – | – | Ki [1, 11]: 500 µM; effect on intracellular (platelet) Calpain [2]: failed to exhibit Calpain inhibitory activity; inhibition of spectrin proteolysis in crude brain extracts [3]: significant inhibition |
| – | – | – | – | – | COC(=O)CCC(=O)NC(C(=O)N1CCCC1C(=O)NC(Cc1ccccc1)C(=O)C(=O)OC)C(C)C (racemic) [MeO-Suc-Val-Pro-DL-Phe-COOMe, MeO-Suc-Val-Pro-DL-Phe-CO2 Me] | 0.1 µM | 1.1 µM | – | Ki [1, 11]: 2.9 µM; effect on intracellular (platelet) Calpain [2]: failed to exhibit Calpain inhibitory activity; inhibition of spectrin proteolysis in crude brain extracts [3]: significant inhibition |
| – | – | – | – | – | CCC(NC(=O)[C@H](C)NC(=O)[C@H](C)NC(=O)OCc1ccccc1)C(=O)C(=O)OCc1ccccc1 (mixture of isomers) [Z-Ala-Ala-DL-Abu-COOBzl, Z-Ala-Ala-DL-Abu-CO2 Bzl] | 60 µM | 30 µM | significant inhibition | – |
| – | – | – | – | – | CCCC(NC(=O)C(C)NC(=O)C(C)NC(=O)OCc1ccccc1)C(=O)C(=O)OCC (racemic) [Z-Ala-Ala-DL-Nva-COOEt, Z-Ala-Ala-DL-Nva-CO2 Et] | 0.1 µM | 30 µM | – | – |
| – | – | – | – | – | CCOC(=O)C(=O)C(C)NC(=O)[C@@H]1CCCN1C(=O)[C@H](C)NC(=O)OCc1ccccc1 (mixture of isomers) [Z-Ala-Pro-DL-Ala-COOEt, Z-Ala-Pro-DL-Ala-CO2 Et] | 66 µM | 26 µM | – | – |
| – | – | – | – | – | CCOC(=O)C(=O)C(C)NC(=O)C(Cc1ccccc1)NC(=O)OCc1ccccc1 (racemic) [Z-Phe-DL-Ala-COOEt] | 3.2 µM | 3.6 µM | – | – |
| – | – | – | – | – | CCOC(=O)C(=O)C(Cc1ccccc1)NC(=O)C(Cc1ccccc1)NC(=O)OCc1ccccc1 (racemic) [Z-Phe-DL-Phe-COOEt] | 0.1 µM | 1.8 µM | – | – |
| > 60 min | 47 µM | 25 µM | 35 µM | 16 µM | CCOC(=O)C(=O)C(CC)NC(=O)C(CC(C)C)NC(=O)C(CC(C)C)NS(=O)(=O)c1ccc2ccccc2c1 (stereo not drawn) [2-NapSO2 -Leu-Leu-Abu-COOEt] | – | – | significant inhibition | Ki [6]: 1.4 µM; IC50 [2]: 100 µM |
| 30 min | 28 µM | 69 µM | 25 µM | 33 µM | CCOC(=O)C(=O)[C@H](CC)NC(=O)[C@H](CC(C)C)NC(=O)[C@H](CC(C)C)NS(=O)(=O)c1ccc(C)cc1 [Tos-Leu-Leu-Abu-COOEt] | – | – | – | IC50 [2]: 30 µM |

| SMILES | t1/2 plasma [5] | Ki [7] | Ki [8] | Ki [9] | Ki [10] | Ki [4] | Ki [1, 12] | inhibition of Calpain within platelets ([2]; 100 μM) | also measured |
| --- | --- | --- | --- | --- | --- | --- | --- | --- | --- |
| CCCCOC(=O)C(=O)[C@H](Cc1ccccc1)NC(=O)[C@H](CC(C)C)NC(=O)OCc1ccccc1 [Z-Leu-Phe-COOnBu, Z-Leu-Phe-CO2 Bu] | 7.7 min | > 100 µM | 15 µM | 0.15 µM | 5 µM | – | – | significant inhibition | Ki [6]: 1.1 µM; platelet assay, semi-quantitative ([2]; semi-quantitative, 100 μM): +++ |
